pIC50: −log10 of the molar value.
Tests used:
Beta-secretase 1 [1] = molecular target: T1, Beta-secretase 1 (Homo sapiens, UniProt P56817); test: Inhibition of human BACE1 at 2 uM by FRET assay
Beta-secretase 1 [2] = molecular target: T1, Beta-secretase 1; test: Inhibition of human BACE1 at 0.2 uM by FRET assay
Beta-secretase 1 [3] = molecular target: T1, Beta-secretase 1; test: Inhibition of human BACE1 by FRET assay

T1 sequence (P56817 whole entry): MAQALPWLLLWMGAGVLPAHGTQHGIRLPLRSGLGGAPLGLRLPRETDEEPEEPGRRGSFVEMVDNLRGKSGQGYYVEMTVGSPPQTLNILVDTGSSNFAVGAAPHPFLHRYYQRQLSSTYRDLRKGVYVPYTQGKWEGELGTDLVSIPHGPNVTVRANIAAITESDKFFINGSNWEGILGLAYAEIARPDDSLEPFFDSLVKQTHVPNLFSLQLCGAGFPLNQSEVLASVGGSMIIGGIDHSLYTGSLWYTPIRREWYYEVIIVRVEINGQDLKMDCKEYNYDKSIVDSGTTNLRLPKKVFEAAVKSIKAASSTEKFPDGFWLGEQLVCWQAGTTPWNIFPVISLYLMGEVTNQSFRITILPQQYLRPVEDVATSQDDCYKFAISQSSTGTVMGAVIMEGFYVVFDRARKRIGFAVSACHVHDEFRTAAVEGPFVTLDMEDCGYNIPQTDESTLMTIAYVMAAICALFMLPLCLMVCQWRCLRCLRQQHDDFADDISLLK

inhibition (Beta-secretase 1 [1]) [%] | inhibition (Beta-secretase 1 [2]) [%] | Structure (SMILES) | pIC50 (Beta-secretase 1 [3])
94 | 64 | CC(C)C[C@H](NC(=O)[C@@H](NC(=O)[C@@H](N)CNC(=O)c1cc(O)ccc1O)C(C)C)C(=O)N[C@@H](Cc1ccccc1)[C@@H](O)C(=O)Nc1cccc(-c2n[nH]c(=S)n2C)c1 | 
> 99 |  | CC(C)[C@H](NC(=O)[C@@H](N)CNC(=O)c1[nH]c(=O)[nH]c(=O)c1F)C(=O)N[C@@H](CC1CCCCC1)C(=O)N[C@@H](Cc1ccccc1)[C@@H](O)C(=O)Nc1cccc(-c2nn[nH]n2)c1 | 
 |  | CC(C)C[C@H](NC(=O)[C@@H](NC(=O)[C@@H](N)CNC(=O)c1cc(O)ccc1O)C(C)C)C(=O)N[C@@H](Cc1ccccc1)[C@@H](O)C(=O)Nc1cccc(-c2nc(=S)o[nH]2)c1 | 7.97
99 | 92 | CC(C)C[C@H](NC(=O)[C@@H](NC(=O)[C@@H](N)CNC(=O)c1[nH]c(=O)[nH]c(=O)c1F)C(C)C)C(=O)N[C@@H](Cc1ccccc1)[C@@H](O)C(=O)Nc1cccc(-c2n[nH]c(=S)n2C)c1 | 
94 | 69 | CC(C)[C@H](NC(=O)[C@@H](N)CNC(=O)c1nc[nH]n1)C(=O)N[C@@H](CC1CCCCC1)C(=O)N[C@@H](Cc1ccccc1)[C@@H](O)C(=O)Nc1cccc(-c2nn[nH]n2)c1 | 
99 | 93 | CC(C)C[C@H](NC(=O)[C@@H](NC(=O)[C@@H](N)CNC(=O)c1[nH]c(=O)[nH]c(=O)c1F)C(C)C)C(=O)N[C@@H](Cc1ccccc1)[C@@H](O)C(=O)Nc1cccc(-c2nsc(=O)[nH]2)c1 | 
 |  | CC(C)C[C@H](NC(=O)[C@@H](NC(=O)[C@@H](N)CNC(=O)c1cc(O)ccc1O)C(C)C)C(=O)N[C@@H](Cc1ccccc1)[C@@H](O)C(=O)Nc1cccc(-c2nc(=O)o[nH]2)c1 | 8.00
99 | 92 | CC(C)C[C@H](NC(=O)[C@@H](NC(=O)[C@@H](N)CNC(=O)c1cc(O)ccc1O)C(C)C)C(=O)N[C@@H](Cc1ccccc1)[C@@H](O)C(=O)Nc1cccc(-c2nsc(=O)[nH]2)c1 | 
> 99 |  | CC(C)[C@H](NC(=O)[C@@H](N)CNC(=O)c1nn[nH]n1)C(=O)N[C@@H](CC1CCCCC1)C(=O)N[C@@H](Cc1ccccc1)[C@@H](O)C(=O)Nc1cccc(-c2nn[nH]n2)c1 | 
83 | 45 | CC(C)[C@H](NC(=O)[C@@H](N)CNC(=O)c1c[nH]cn1)C(=O)N[C@@H](CC1CCCCC1)C(=O)N[C@@H](Cc1ccccc1)[C@@H](O)C(=O)Nc1cccc(-c2nn[nH]n2)c1 | 
87 | 50 | CC(C)C[C@H](NC(=O)[C@@H](NC(=O)[C@@H](N)CNC(=O)c1c[nH]cn1)C(C)C)C(=O)N[C@@H](Cc1ccccc1)[C@@H](O)C(=O)Nc1cccc(-c2nn[nH]n2)c1 | 
> 99 | 95 | CC(C)C[C@H](NC(=O)[C@@H](NC(=O)[C@@H](N)CNC(=O)c1[nH]c(=O)[nH]c(=O)c1F)C(C)C)C(=O)N[C@@H](Cc1ccccc1)[C@@H](O)C(=O)Nc1cccc(-c2noc(=S)[nH]2)c1 | 7.99
> 99 | 95 | CC(C)C[C@H](NC(=O)[C@@H](NC(=O)[C@@H](N)CNC(=O)c1[nH]c(=O)[nH]c(=O)c1F)C(C)C)C(=O)N[C@@H](Cc1ccccc1)[C@@H](O)C(=O)Nc1cccc(-c2n[nH]c(=S)o2)c1 | 
> 99 | 93 | CC(C)C[C@H](NC(=O)[C@@H](NC(=O)[C@@H](N)CNC(=O)c1cc(O)ccc1O)C(C)C)C(=O)N[C@@H](Cc1ccccc1)[C@@H](O)C(=O)Nc1cccc(-c2noc(=S)[nH]2)c1 | 
91 | 58 | CC(C)C[C@H](NC(=O)[C@@H](NC(=O)[C@@H](N)CNC(=O)c1nc[nH]n1)C(C)C)C(=O)N[C@@H](Cc1ccccc1)[C@@H](O)C(=O)Nc1cccc(-c2nn[nH]n2)c1 | 
99 | 89 | CC(C)C[C@H](NC(=O)[C@@H](NC(=O)[C@@H](N)CNC(=O)c1cc(O)ccc1O)C(C)C)C(=O)N[C@@H](Cc1ccccc1)[C@@H](O)C(=O)Nc1cccc(-c2n[nH]c(=S)o2)c1 | 

Structure (SMILES) | inhibition (Beta-secretase 1 [1]) [%] | inhibition (Beta-secretase 1 [2]) [%] | pIC50 (Beta-secretase 1 [3])
CC(C)C[C@H](NC(=O)[C@@H](NC(=O)[C@@H](N)CNC(=O)c1[nH]c(=O)[nH]c(=O)c1F)C(C)C)C(=O)N[C@@H](Cc1ccccc1)[C@@H](O)C(=O)Nc1cccc(-c2nn[nH]n2)c1 | > 99 |  | 
CC(C)C[C@H](NC(=O)[C@@H](NC(=O)[C@@H](N)CNC(=O)c1[nH]c(=O)[nH]c(=O)c1F)C(C)C)C(=O)N[C@@H](Cc1ccccc1)[C@@H](O)C(=O)Nc1cccc(-c2noc(=O)[nH]2)c1 | > 99 | 96 | 8.10
CC(C)C[C@H](NC(=O)[C@@H](NC(=O)[C@@H](N)CNC(=O)c1cc(O)ccc1O)C(C)C)C(=O)N[C@@H](Cc1ccccc1)[C@@H](O)C(=O)Nc1cccc(-c2noc(=O)[nH]2)c1 | > 99 | 92 | 
CC(C)C[C@H](NC(=O)[C@@H](NC(=O)[C@@H](N)CNC(=O)c1nn[nH]n1)C(C)C)C(=O)N[C@@H](Cc1ccccc1)[C@@H](O)C(=O)Nc1cccc(-c2nn[nH]n2)c1 | > 99 |  | 
